The values below come from patent publication US20250134800A1, “Biomass Extract For Skin Applications” (EMBION TECHNOLOGIES SA, priority 2022, published 2025).

Some results are limits rather than exact numbers.

In assay [1] the test system is S. aureus. Nature of the assay: Inhibitory study on colonized Reconstructed Human Epidermis (RHE), viable count. It is filed as cell-based, Staphylococcus aureus. From the text:
The principal aim of the present study was to evaluate the potential efficacy of BSG-derived preparations on a more biologically relevant in vitro preclinical model based on colonized Reconstructed Human Epidermis (RHE). The main focus was given to: • I. to counteract Staphylococcus aureus adhesion and its proliferative capacity. The rationale was based on the possibility of the ingredients to balance the inflammatory reaction induced by the bacterium, reducing its adhesion and growth on RHE model (inhibitory study); • II. the prebiotic effect of the 3 preparations versus Staphylococcus epidermidis (prebiotic study). The rationale was based on the possibility of the ingredients to protect and biostimulant the normal skin microbiota; • III. their biological impact on sterile RHE model. The rationale was based on the possibility that the ingredients to enhance or balance the innate immune response.
For this study the following BSG-derived preparations were used: • for inhibitory and ingredient impact effects: P1 at 1%, P3 at 2% and P4 at 4%; • for prebiotic effect: […] at 1%, P3 at 2% and P5 at 1%.
SkinEthic^@ Reconstituted Human Epidermis 0.5 cm^2 is a reconstructed epidermis of normal human keratinocytes. Cells are grown on inert polycarbonate filters in chemically defined medium, for 17 days. The model reproduces epidermal morphology and it has been fully characterized. The good barrier function, batch reproducibility and low variability in terms of permeability for probe molecules have been described in Literature compared to human ex-vivo models. The RHE batch was tested for the absence of HIV1 and 2 antibodies, hepatitis C antibodies and hepatitis B antigen HBs. On cells from the donors, was verified the absence of bacteria, fungus and mycoplasma. The maintenance medium was tested for sterility.
Two days before the test, bacterial strains (S. aureus and S. epidermidis) were daily inoculated onto culture medium (BHI agar plate) and incubated at 37° C. in aerobic conditions for at least 24 h in order to obtain a fresh culture. The day of the colonization, bacterial strains have been resuspended in sterile saline solution at the required concentration range. Each starting bacterial inoculum concentration was checked by spectrophotometric OD measure and adjusted to obtain a range of about 10^7-10^8 UFC/mL (OD=0.1); it was then diluted 10-fold to obtain a final range concentration of 10^3-10^4 UFC/tissue for the inhibitory study and 10^4-10^5 UFC/tissue for prebiotic study. The starting inoculum level was also confirmed by serial decimal dilutions and viable counts on agar plates (BHI).
For both inhibitory and prebiotic RHE were pre-treated twice (overnight and 1 h before colonization respectively with 50 uL and 30 uL) on the apical part (directly spread on tissue surface) and left incubated at 37° C. (with CO2 5%) up to the colonization. Pre-treated RHE dedicated to inhibitory and prebiotic studies were colonized with 30 μL of the bacterial suspension previously obtained (respectively with S. aureus for inhibitory study and S. epidermidis for prebiotic study) and incubated at 37° C. (with CO2 5%) up to the required time point (24 h). RHE sterile were not colonized pre-treated twice (overnight and 1 h before colonization respectively with 50 uL and 30 uL) on the apical part (directly spread on tissue surface) and left incubated at 37° C. (with CO2 5%) up to the required time point (24 h). […]

Assay [2] concerns Staphylococcus aureus (MRSA) ATCC 33591. Nature of the assay: Microdilution assay in liquid broth, viable count on agar plates. Format: cell-based. To be noted: positive controls at 4%, up to 24 h. The protocol:
(§1) A microbiological screening study on liquid broth was performed to assess the activity (bacterial growth) of 5 preparations (P1, P2, P3, P4 and P5) on two Staphylococcus species: (1) Staphylococcus aureus (MRSA) ATCC 33591 as potential skin pathogen and (2) Staphylococcus epidermidis ATCC 12228 as commensal strain in healthy skin. With the aim to assess a potential and strain specific antimicrobial or prebiotic activity vs Staphylococcus spp and to validate the hypothesis that the ingredients may have a prebiotic effect (on S. epidermidis) and meanwhile negatively impacting the viability or growth rate (on S. aureus), the experimental results are presented below.
(§2) To assess a potential and strain specific antimicrobial or prebiotic activity vs Staphylococcus spp.: a microdilution assay (viable count on agar plates) in liquid broth was performed using 3 different concentrations, 4%-2%-1% for each ingredient, compared to inulin and glucose as carbon source and prebiotic reference. […]
(§3) The growth rate checked by viable count (CFU/mL) was performed to quantify the number of residual viable cells present in the test cultures and they were then expressed as Log values.
(Broth dilution looks for growth in wells or tubes with falling amounts of substance.)

Assay [3] has as its system Staphylococcus epidermidis ATCC 12228. The assay is described as above. Format: cell-based. The following applies: positive controls at 4%, up to 24 h. The procedure: as §1, §2, §3
Setting [4] is: RHE model after 2 days, vs colonized control, P1 1%, P3 2%, P4 4%, Chlorexidine 1%.
Setting [5] is: RHE model after 2 days, P1 1%, P3 2%, P4 4%, Chlorexidine 1%.

On to `N=C(NCCCCCCNC(=N)NC(=N)Nc1ccc(Cl)cc1)NC(=N)Nc1ccc(Cl)cc1` [REF, Chlorexidine], for which, in assay [1] (P3 at 2%, P4 at 4%, REF Chlorexidine 1%), the “bacterial growth on RHE compared to the colonized control” value is reported as “no bacterial growth”. In addition, in assay [1] (setting [4]), the “Apical fraction Log reductions” value is recorded as more than 3.26 Log and the “Homogenate fraction Log reductions” value is more than 3.00 Log. In assay [1] (setting [5]), the “Apical fraction Log (Mean) viable count” value is listed as less than 2.00 Log and the “Homogenate fraction Log (Mean) viable count” value was less than 2.00 Log.
Take Inulin: the “growth compared with inoculum count” value in assay [2] and in assay [3] was “growth similar to the inoculum count” each time.
